Each block holds one compound with its values, some of them ahead of it.
Experiment: solvent given as SMILES

absorption maximum (in ClCCl): 392 nm
Compound: CC(C)(C)NC(=O)c1ccc2ccc3cccc4c3c2c1c1c2ccccc2c2ccccc2c41

absorption maximum (in ClCCl): 433 nm
Compound: CCCCN(CCCC)c1ccc(C#Cc2cc(C#Cc3ccc(N(CCCC)CCCC)cc3)c(C#Cc3cc(C(F)(F)F)cc(C(F)(F)F)c3)cc2C#Cc2cc(C(F)(F)F)cc(C(F)(F)F)c2)cc1

absorption maximum (in CC#N): 365 nm
Compound: COc1ccc(-c2nc(-c3ccc(-c4nc(-c5ccc(OC)cc5)c(-c5ccc(OC)cc5)[nH]4)s3)[nH]c2-c2ccc(OC)cc2)cc1

absorption maximum (in ClCCl): 351 nm
Compound: CCOC(=O)c1c(C(=O)OC)c(-c2cc3cc(OC)ccc3oc2=O)nn1-c1ccccc1

absorption maximum (in CC#N): 380 nm
Compound: CCOC(=O)c1c2c3c(ccc(C)c3c3cc4c(cc13)[Si](C)(C)O[Si]4(C)C)N(C)C2=O

absorption maximum (in C1CCOC1): 422 nm
Compound: CCCCCOc1cc2oc(=O)c3c4occc4c4ccc5cccc6c(c1)c2c3c4c56

absorption maximum (in CS(C)=O): 644 nm
Compound: COc1ccc(-c2c3nc(cc4ccc([nH]4)c(-c4ccc(OC)c(OCCCC(=O)O)c4)c4nc(cc5ccc2[nH]5)CC4)C=C3)cc1OCCCC(=O)O

absorption maximum (in C1CCOC1): 338 nm
Compound: CCC1(CC)c2cc(Br)ccc2-c2c1c1c(c3c2C(CC)(CC)c2cc(-c4cccs4)ccc2-3)C(CC)(CC)c2cc(-c3cccs3)ccc2-1

absorption maximum (in ClCCl): 485 nm
Compound: CCCCN1C(=O)C2=C(c3ccc(-c4ccccc4)cc3)NC(=O)C2=C1c1ccc(-c2ccccc2)cc1

absorption maximum (in CS(C)=O): 553 nm
Compound: C[N+]1=C(/C=C/C=C2/N(CCCS(=O)(=O)[O-])c3ccccc3C2(C)C)C(C)(C)c2ccccc21

absorption maximum (in C1CCOC1): 408 nm
absorption maximum (in CC#N): 405 nm
absorption maximum (in CCO): 414 nm
absorption maximum (in CCOC(C)=O): 407 nm
absorption maximum (in ClCCl): 410 nm
absorption maximum (in c1ccccc1): 422 nm
Compound: CC1(C)CC(/C=C/c2ccc(-n3c4ccccc4c4ccccc43)cc2)=CC(=C(C#N)C#N)C1

absorption maximum (in C1CCOC1): 328 nm
absorption maximum (in CCCCCC): 328 nm
absorption maximum (in CCO): 328 nm
absorption maximum (in CS(C)=O): 330 nm
Compound: Cc1ccc(-c2cc3ccccc3oc2=O)cc1

absorption maximum (in ClC(Cl)Cl): 670 nm
Compound: CCOC(=O)/C(C)=C/C1=C(c2ccc(C)cc2)C2=Nc3c(-c4ccc(C)cc4)c(-c4ccc(OC)cc4)c(-c4ccc(C)cc4)n3[B-](F)(F)[N+]2=C1c1ccc(C)cc1

absorption maximum (in CC#N): 335 nm
absorption maximum (in CCO): 336 nm
absorption maximum (in ClCCl): 340 nm
Compound: C[P+]1(c2ccccc2)c2ccccc2-c2sc3ccccc3c21 (stereo not drawn)

absorption maximum (in ClCCl): 566 nm
Compound: c1ccc(Cc2c3ccc(=[N+]4CCCCC4)cc-3oc3cc(N4CCCCC4)ccc23)cc1

absorption maximum (in ClC(Cl)Cl): 637 nm
Compound: F[B-]1(F)n2c(cc3oc4ccccc4c32)C(c2ccc(I)cc2)=C2C=c3oc4ccccc4c3=[N+]21

absorption maximum (in CC#N): 568.51 nm
absorption maximum (in CCCCCC): 580.18 nm
absorption maximum (in ClCCl): 576 nm
Compound: CCCCCCCCOc1ccc(C2=C3C(C)=C(C#Cc4ccc(B(c5c(C)cc(C)cc5C)c5c(C)cc(C)cc5C)cc4)C(C)=[N+]3[B-](F)(F)n3c(C)c(C#Cc4ccc(B(c5c(C)cc(C)cc5C)c5c(C)cc(C)cc5C)cc4)c(C)c32)cc1

absorption maximum (in CCO): 421 nm
absorption maximum (in ClCCl): 428 nm
absorption maximum (in O): 443 nm
Compound: N#CC(C#N)=Cc1ccc(-c2cccc(-c3nc4ccccc4s3)c2O)o1

absorption maximum (in O): 646 nm
Compound: Cc1ccc(N(C)C)cc1C1=C2C=CC(=[N+](C)C)C=C2[Si](C)(C)c2cc(N(C)C)ccc21

absorption maximum (in ClCCl): 652 nm
Compound: CC(C)[Si](C#Cc1c2cc3ccccc3cc2c(C#Cc2ccccc2)c2cc3ccccc3cc12)(C(C)C)C(C)C

absorption maximum (in ClC(Cl)Cl): 393 nm
Compound: COc1ccc(N(c2ccc(OC)cc2)c2sc(-c3ccc(Cl)cc3)nc2-c2ccccc2)cc1

absorption maximum (in CC#N): 449 nm
Compound: CN(C)c1ccc(C=C2Oc3cccc(O)c3C2=O)cc1

absorption maximum (in C1CCOC1): 495 nm
Compound: C[Si](C)(C)c1ccc(-c2ccc(-c3ccc(-c4ccc(-c5ccc([Si](C)(C)C)cc5)s4)c4nsnc34)s2)cc1

absorption maximum (in ClCCl): 509 nm
Compound: CN(C)c1ccc(C#Cc2cc(C#Cc3ccc(C(F)(F)F)cc3)c3ccc4c(C#Cc5ccc(N(C)C)cc5)cc(C#Cc5ccc(C(F)(F)F)cc5)c5ccc2c3c45)cc1

absorption maximum (in CS(C)=O): 349 nm
Compound: Cc1ccc(-c2nc3sc4ccccc4c3s2)cc1

absorption maximum (in ClCCl): 394 nm
Compound: CC(C)[Si](C#Cc1ccc2c(C#C[Si](C(C)C)(C(C)C)C(C)C)cc3c4cc(C#C[Si](C(C)C)(C(C)C)C(C)C)ccc4c(C#C[Si](C(C)C)(C(C)C)C(C)C)cc3c2c1)(C(C)C)C(C)C

absorption maximum (in C1CCCCC1): 302 nm
Compound: CC(C)(C)[Si](C)(C)c1ccc([Si](C)(C)C(C)(C)C)c2ccccc12

absorption maximum (in CS(C)=O): 405 nm
absorption maximum (in ClC(Cl)Cl): 393 nm
Compound: CCCCCCn1c2ccccc2c2cc(/C=C/c3cc(=O)oc4cc(C)ccc34)ccc21

Second part, the compound before the results:

Compound: O=C(c1cc(F)c(N2CCOCC2)cc1F)c1cc(F)c(N2CCOCC2)cc1F
absorption maximum (in CCO): 342 nm

Compound: C(=C\c1ccnc(/C=C/c2ccc(N(c3ccccc3)c3ccccc3)cc2)n1)/c1ccc(N(c2ccccc2)c2ccccc2)cc1
absorption maximum (in ClCCl): 402 nm

Compound: c1ccc(-c2nc(-c3ccccc3)nc(-c3ccc(-n4c5ccccc5c5c6c(ccc54)C4(c5ccccc5-c5ccccc54)c4ccccc4-6)cc3)n2)cc1
absorption maximum (in Cc1ccccc1): 374 nm

Compound: C(/C=C/Nc1cccc2ccccc12)=[NH+]c1cccc2ccccc12
absorption maximum (in CS(C)=O): 391 nm

Compound: CCN(CC)c1ccc2cc(/C=C/C(O)=C3\CC/C(=C\c4cc5ccc(N(CC)CC)cc5oc4=O)C3=O)c(=O)oc2c1
absorption maximum (in C1COCCO1): 513 nm
absorption maximum (in CC#N): 532 nm
absorption maximum (in CC(C)=O): 526 nm
absorption maximum (in CCOC(C)=O): 516 nm
absorption maximum (in CN(C)C=O): 546 nm
absorption maximum (in CS(C)=O): 556 nm
absorption maximum (in Cc1ccccc1): 511 nm
absorption maximum (in ClC(Cl)Cl): 525 nm

Compound: O=C1c2cccc3c(NCc4ccccn4)c4ccccc4c(c23)C(=O)N1Cc1ccccn1
absorption maximum (in C1CCOC1): 520 nm
absorption maximum (in CCCCCC): 497 nm
absorption maximum (in CCO): 533 nm
absorption maximum (in Cc1ccccc1): 517 nm
absorption maximum (in ClCCl): 527 nm

Compound: CC1=CC(C)=[N+]2C1=C(c1c3ccccc3c(C)c3ccccc13)c1c(C)cc(C)n1[B-]2(F)F
absorption maximum (in CC#N): 503 nm
absorption maximum (in CCCCCC): 505 nm
absorption maximum (in CCO): 504 nm
absorption maximum (in CN(C)C=O): 506 nm
absorption maximum (in Cc1ccccc1): 509 nm
absorption maximum (in ClCCl): 506 nm

Compound: NNC(=O)N1C(=O)c2cc(S(=O)(=O)[O-])cc3c(N)c(S(=O)(=O)[O-])cc(c23)C1=O
absorption maximum (in O): 458 nm

Compound: Cc1c2oc3c(C)c(N)cc(C(=O)NC4OC(=O)C(C(C)C)N(C)C(=O)CN(C)C(=O)C5CCCN5C(=O)C(C(C)C)NC4=O)c3nc-2c(C(=O)NC2OC(=O)C(C(C)C)N(C)C(=O)CN(C)C(=O)C3CCCN3C(=O)C(C(C)C)NC2=O)c(N)c1=O (stereo not drawn)
absorption maximum (in C1CCOC1): 524.93 nm
absorption maximum (in CC#N): 516.03 nm
absorption maximum (in CC(=O)O): 521 nm
absorption maximum (in CC(C)=O): 522.69 nm
absorption maximum (in CCCCO): 532.67 nm
absorption maximum (in CCCCOC(C)=O): 524.07 nm
absorption maximum (in CCCO): 533.23 nm
absorption maximum (in CCN(CC)CC): 534.89 nm
absorption maximum (in CCO): 531.93 nm
absorption maximum (in CCOC(C)=O): 522.62 nm
absorption maximum (in CN(C)C=O): 535.18 nm
absorption maximum (in CO): 529.7 nm
absorption maximum (in CS(C)=O): 540.29 nm
absorption maximum (in Cc1ccccc1): 528.44 nm
absorption maximum (in ClC(Cl)Cl): 520.12 nm
absorption maximum (in ClCCCl): 517.19 nm
absorption maximum (in O): 514.17 nm
absorption maximum (in O=[N+]([O-])c1ccccc1): 534 nm
absorption maximum (in c1ccccc1): 522.11 nm
absorption maximum (in c1ccncc1): 541.16 nm

Compound: C(#Cc1cc2ccc3cc(C#Cc4ccccc4)cc4ccc(c1)c2c34)c1ccccc1
absorption maximum (in Cc1ccccc1): 410 nm

Compound: CC(C)(C)c1ccc2c(c1)c1cc(C(C)(C)C)ccc1n2-c1ccc(-c2nc(-c3ccc(-n4c5ccc(C(C)(C)C)cc5c5cc(C(C)(C)C)ccc54)cc3)nc(-c3ccc(P(=O)(c4ccccc4)c4ccccc4)cc3)n2)cc1
absorption maximum (in C1CCOC1): 386.93 nm
absorption maximum (in CC#N): 380.02 nm
absorption maximum (in CC(C)=O): 380.02 nm
absorption maximum (in CN(C)C=O): 384.45 nm
absorption maximum (in Cc1ccccc1): 393.2 nm
absorption maximum (in ClC(Cl)Cl): 430.07 nm
absorption maximum (in ClCCl): 382.72 nm

Compound: O=c1c2cc(-n3c4ccccc4c4ccccc43)ccc2sc2ccc(-n3c4ccccc4c4ccccc43)cc12
absorption maximum (in C1CCOC1): 408 nm
absorption maximum (in CCCCCC): 408 nm
absorption maximum (in Cc1ccccc1): 408 nm
absorption maximum (in ClC(Cl)Cl): 408 nm
absorption maximum (in ClCCl): 408 nm

Compound: COc1cc(/C=C/c2cc(OC)c(-c3nc(-c4ccccc4)c(-c4ccccc4)[nH]3)cc2OC)c(OC)cc1/C=C/c1cc(OC)c(-c2nc(-c3ccccc3)c(-c3ccccc3)[nH]2)cc1OC
absorption maximum (in C1CCOC1): 444 nm
absorption maximum (in CC#N): 441 nm
absorption maximum (in Cc1ccccc1): 447 nm

Compound: c1ccc2c(c1)Sc1ccccc1N2c1ccc2c(c1)C1(c3ccccc3-c3ccccc31)c1cc(N3c4ccccc4Sc4ccccc43)ccc1-2
absorption maximum (in Cc1ccccc1): 309 nm

Compound: Cc1c(C)n2c(COC(=O)c3ccccc3I)c(C)c(=O)n2c1=O
absorption maximum (in CCO): 377 nm

Compound: CC(C)(C)c1ccc(C2=C(c3ccc(N(c4ccccc4)c4ccccc4)cc3)S(=O)(=O)c3c2sc(-c2ccc(N(c4ccccc4)c4ccccc4)cc2)c3-c2ccc(C(C)(C)C)cc2)cc1
absorption maximum (in C1CCOC1): 463 nm

Compound: c1ccc(N(c2ccccc2)c2ccc(-c3ccc4c(c3)C3(c5cc(-c6ccc(N(c7ccccc7)c7ccccc7)cc6)ccc5S4)c4ccccc4-c4ccccc43)cc2)cc1
absorption maximum (in ClCCl): 356 nm

Compound: COc1cc(/C=C/c2nc3ccccc3s2)c(OC)cc1/C=C/c1ccncc1
absorption maximum (in C1CCOC1): 415 nm
absorption maximum (in CC#N): 410 nm
absorption maximum (in CN(C)C=O): 416 nm
absorption maximum (in Cc1ccccc1): 416 nm

Compound: CN(C)c1[se]c(-c2ccccc2)nc1-c1ccccc1
absorption maximum (in ClC(Cl)Cl): 326 nm

Compound: c1ccc2c(c1)Cc1ccccc1N2c1c2ccccc2cc2ccccc12
absorption maximum (in Cc1ccccc1): 416 nm

Compound: CN(CCO)c1ccc(/C=C/C2=C(C#N)C(C(C#N)C#N)OC2(C)C)cc1 (stereo not drawn)
absorption maximum (in CC#N): 586 nm
absorption maximum (in CC(C)=O): 574 nm
absorption maximum (in CCO): 579 nm
absorption maximum (in CCOC(C)=O): 565 nm
absorption maximum (in CN(C)C=O): 588 nm
absorption maximum (in CO): 575 nm
absorption maximum (in CS(C)=O): 595 nm
absorption maximum (in Cc1ccccc1): 562 nm
absorption maximum (in ClCCl): 575 nm
absorption maximum (in O): 587 nm

From the Deep4Chem optical property database
